Laboratory results published in PubChem BioAssay (NCI).
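Protocol summary: plate cells (96-well), add compound at 5 concentrations, incubate 48 h, interpolate endpoints linearly. Here, GI50 denotes the concentration required for 50% inhibition of growth. At the TGI there is no net growth.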

What was measured:
Test in all cases: growth of human tumour cells (NCI), 48 h
NCI-H522 lung = system: NCI-H522 lung
A498 renal = system: A498 renal
HCT-15 colon = system: HCT-15 colon
SR leukemia = system: SR leukemia
RPMI-8226 leukemia = system: RPMI-8226 leukemia
MDA-MB-468 breast = system: MDA-MB-468 breast
TK-10 renal = system: TK-10 renal
SNB-19 CNS = system: SNB-19 CNS
SF-539 CNS = system: SF-539 CNS
MOLT-4 leukemia = system: MOLT-4 leukemia
A549 NSCLC = system: A549 NSCLC
UACC-62 melanoma = system: UACC-62 melanoma
CCRF-CEM leukemia = system: CCRF-CEM leukemia
HL-60(TB) leukemia = system: HL-60(TB) leukemia
NCI-H460 lung = system: NCI-H460 lung
MDA-MB-231 breast = system: MDA-MB-231 breast
OVCAR-5 ovarian = system: OVCAR-5 ovarian
HCT-116 colon = system: HCT-116 colon
HT29 colon = system: HT29 colon
OVCAR-3 ovarian = system: OVCAR-3 ovarian
UO-31 renal = system: UO-31 renal
LOX IMVI melanoma = system: LOX IMVI melanoma
SK-OV-3 ovarian = system: SK-OV-3 ovarian
CAKI-1 renal = system: CAKI-1 renal
KM12 colon = system: KM12 colon
HCC-2998 colon = system: HCC-2998 colon
T-47D breast = system: T-47D breast
HOP-62 NSCLC = system: HOP-62 NSCLC
HOP-92 NSCLC = system: HOP-92 NSCLC
HS 578T breast = system: HS 578T breast

## O=C(CNc1nc(-c2ccccc2)cs1)Nc1ccc(Cl)cc1[N+](=O)[O-]
NCI-H522 lung
  GI50: 1.8 µM
  TGI: 3.95 µM
A498 renal
  GI50: 7.9 µM
  TGI: 20.4 µM
HCT-15 colon
  GI50: 1.98 µM
  TGI: 4.53 µM
SR leukemia
  GI50: 3.75 µM
  TGI: > 100 µM
RPMI-8226 leukemia
  GI50: 2.67 µM
  TGI: > 100 µM
MDA-MB-468 breast
  GI50: 2.02 µM
  TGI: 5.69 µM
TK-10 renal
  GI50: 6.12 µM
  TGI: 17.9 µM
SNB-19 CNS
  GI50: 3.78 µM
  TGI: 15 µM
SF-539 CNS
  GI50: 1.84 µM
  TGI: 4.05 µM
MOLT-4 leukemia
  GI50: 2.49 µM
  TGI: 13.9 µM
A549 NSCLC
  GI50: 3.93 µM
  TGI: 14.5 µM
UACC-62 melanoma
  GI50: 1.33 µM
  TGI: 3.25 µM
CCRF-CEM leukemia
  GI50: 3.29 µM
  TGI: > 100 µM
HL-60(TB) leukemia
  GI50: 2.03 µM
  TGI: 6.56 µM
NCI-H460 lung
  GI50: 4.18 µM
  TGI: 17.5 µM
MDA-MB-231 breast
  GI50: 1.63 µM
  TGI: 3.54 µM
OVCAR-5 ovarian
  GI50: 2.49 µM
  TGI: 8.24 µM
HCT-116 colon
  GI50: 2.95 µM
  TGI: 10.2 µM
HT29 colon
  GI50: 3.79 µM
  TGI: 14.4 µM
OVCAR-3 ovarian
  GI50: 2.36 µM
  TGI: 5.72 µM
UO-31 renal
  GI50: 1.62 µM
  TGI: 6.97 µM
LOX IMVI melanoma
  GI50: 1.32 µM
  TGI: 2.88 µM
SK-OV-3 ovarian
  GI50: 4.65 µM
  TGI: 19 µM
CAKI-1 renal
  GI50: 1.85 µM
  TGI: 9.85 µM
KM12 colon
  GI50: 3.36 µM
  TGI: 13 µM
HCC-2998 colon
  GI50: 2.71 µM
  TGI: 10.2 µM
T-47D breast
  GI50: 2.46 µM
  TGI: 8.61 µM
HOP-62 NSCLC
  GI50: 4.23 µM
  TGI: 17.3 µM
HOP-92 NSCLC
  GI50: 1.99 µM
  TGI: 8.19 µM
HS 578T breast
  GI50: 2.39 µM
